Source: article PMC6044933 (ACS Omega, 2017)
Structures can show the parent of a compound that is named as a salt. Where two headings read alike, the source gives them in different places. Each block holds one compound with its values, some of them ahead of it.

What was measured:
Experiment in all cases: cells
U87 = settings: Homo sapiens, U-87 MG, 72 h
Du145 = settings: Homo sapiens, DU-145, 72 h
H460 = settings: Homo sapiens, NCI-H460, 72 h
A2780 = settings: Homo sapiens, A2780, 72 h
MIA = settings: 72 h
BE2-C = settings: Homo sapiens, BE(2)-C, 72 h
MCF10A = settings: Homo sapiens, MCF-10A, 72 h
A431 = settings: Homo sapiens, A-431, 72 h
HT29 = settings: Homo sapiens, HT-29, 72 h
MCF-7 = settings: Homo sapiens, MCF7, 72 h
SMA = settings: SMA, 72 h
SJ-G2 = settings: SJ-G2, 72 h

GI50 (U87; read-out: 8e): > 50 µM
GI50 (Du145; read-out: 8e): > 50 µM
GI50 (H460; read-out: 8e): > 50 µM
GI50 (A2780; read-out: 8e): > 50 µM
GI50 (MIA; read-out: 8e): > 50 µM
GI50 (A431; read-out: 8e): > 50 µM
GI50 (HT29; read-out: 8e): > 50 µM
GI50 (MCF-7; read-out: 8e): > 50 µM
Compound: Nc1ccc(OC/C=C\COc2ccc(N)cc2)cc1 [8e, (Z)-4,4′-(But-2-ene-1,4-diylbis(oxy))dianiline hydrochloride]
GI50 (BE2-C; read-out: 8e): > 50 µM
GI50 (MCF10A; read-out: 8e): > 50 µM
GI50 (SMA; read-out: 8e): > 50 µM
GI50 (SJ-G2; read-out: 8e): > 50 µM

GI50 (U87; read-out: 10a): > 50 µM
GI50 (Du145; read-out: 10a): > 50 µM
GI50 (H460; read-out: 10a): > 50 µM
GI50 (A2780; read-out: 10a): > 50 µM
GI50 (MIA; read-out: 10a): > 50 µM
GI50 (A431; read-out: 10a): > 50 µM
GI50 (HT29; read-out: 10a): > 50 µM
GI50 (MCF-7; read-out: 10a): > 50 µM
Compound: CCNC(=O)Nc1ccc(OCCCOc2ccc(NC(=O)NCC)cc2)cc1 [10a, N,N′-[1,3-Propanediylbis(oxy-4,1-phenylene)]bis(N-ethyl)urea]
GI50 (BE2-C; read-out: 10a): > 50 µM
GI50 (MCF10A; read-out: 10a): > 50 µM
GI50 (SMA; read-out: 10a): > 50 µM
GI50 (SJ-G2; read-out: 10a): > 50 µM

GI50 (U87; read-out: 10b): > 50 µM
GI50 (Du145; read-out: 10b): > 50 µM
GI50 (H460; read-out: 10b): > 50 µM
GI50 (A2780; read-out: 10b): > 50 µM
GI50 (MIA; read-out: 10b): > 50 µM
GI50 (A431; read-out: 10b): > 50 µM
GI50 (HT29; read-out: 10b): > 50 µM
GI50 (MCF-7; read-out: 10b): > 50 µM
Compound: CCNC(=O)Nc1ccc(OCCCCCOc2ccc(NC(=O)NCC)cc2)cc1 [10b, N,N′-[1,5-Pentanediylbis(oxy-4,1-phenylene)]bis(N-ethyl)urea]
GI50 (BE2-C; read-out: 10b): > 50 µM
GI50 (MCF10A; read-out: 10b): > 50 µM
GI50 (SMA; read-out: 10b): > 50 µM
GI50 (SJ-G2; read-out: 10b): > 50 µM

GI50 (U87; read-out: 10e): > 50 µM
GI50 (Du145; read-out: 10e): > 50 µM
GI50 (H460; read-out: 10e): > 50 µM
GI50 (A2780; read-out: 10e): > 50 µM
GI50 (MIA; read-out: 10e): > 50 µM
GI50 (A431; read-out: 10e): > 50 µM
GI50 (HT29; read-out: 10e): > 50 µM
GI50 (MCF-7; read-out: 10e): > 50 µM
Compound: CCNC(=O)Nc1ccc(OC/C=C\COc2ccc(NC(=O)NCC)cc2)cc1 [10e, (Z)-1,1′-((But-2-ene-1,4-diylbis(oxy))bis(4,1-phenylene))bis(3-ethylurea)]
GI50 (BE2-C; read-out: 10e): > 50 µM
GI50 (MCF10A; read-out: 10e): > 50 µM
GI50 (SMA; read-out: 10e): > 50 µM
GI50 (SJ-G2; read-out: 10e): > 50 µM

Compound: CCNC(=O)Nc1ccc(OC/C=C\COc2ccc(CCN)cc2)cc1 [13i, (Z)-2-(4-((4-(4-(3-Ethylureido)phenoxy)but-2-en-1-yl)oxy)phenyl)ethan-1-aminium]
GI50 (U87; read-out: 13i): 29 ± 1.4 µM
GI50 (Du145; read-out: 13i): 13 ± 0.41 µM
GI50 (H460; read-out: 13i): 21 ± 2.1 µM
GI50 (A2780; read-out: 13i): 18 ± 0.91 µM
GI50 (MIA; read-out: 13i): 28 ± 0.82 µM
GI50 (BE2-C; read-out: 13i): 18 ± 3.2 µM
GI50 (MCF10A; read-out: 13i): 19 ± 0.5 µM
GI50 (A431; read-out: 13i): 17 ± 0.75 µM
GI50 (HT29; read-out: 13i): 15 µM
GI50 (MCF-7; read-out: 13i): 17 ± 0.82 µM
GI50 (SMA; read-out: 13i): 28 ± 4.4 µM
GI50 (SJ-G2; read-out: 13i): 24 ± 2.6 µM

GI50 (U87; read-out: 1): > 50 µM
GI50 (Du145; read-out: 1): > 50 µM
GI50 (H460; read-out: 1): > 50 µM
GI50 (A2780; read-out: 1): > 50 µM
GI50 (MIA; read-out: 1): > 50 µM
GI50 (A431; read-out: 1): > 50 µM
GI50 (HT29; read-out: 1): > 50 µM
GI50 (MCF-7; read-out: 1): > 50 µM
Compound: CCNC(=O)Nc1ccc(OCCCCOc2ccc(NC(=O)NCC)cc2)cc1 [compound 1]
GI50 (BE2-C; read-out: 1): > 50 µM
GI50 (MCF10A; read-out: 1): > 50 µM
GI50 (SMA; read-out: 1): > 50 µM
GI50 (SJ-G2; read-out: 1): > 50 µM

GI50 (U87; read-out: 18): > 50 µM
GI50 (Du145; read-out: 18): > 50 µM
GI50 (H460; read-out: 18): > 50 µM
GI50 (A2780; read-out: 18): > 50 µM
GI50 (MIA; read-out: 18): > 50 µM
GI50 (A431; read-out: 18): > 50 µM
GI50 (HT29; read-out: 18): > 50 µM
GI50 (MCF-7; read-out: 18): > 50 µM
Compound: O=C(O)c1ccc(OC/C=C\COc2ccc(C(=O)O)cc2)cc1 [compound 18, (Z)-4,4′-(But-2-ene-1,4-diylbis(oxy))dibenzoic Acid]
GI50 (BE2-C; read-out: 18): > 50 µM
GI50 (MCF10A; read-out: 18): > 50 µM
GI50 (SMA; read-out: 18): > 50 µM
GI50 (SJ-G2; read-out: 18): > 50 µM

GI50 (U87; read-out: 22): 2 ± 0.1 µM
GI50 (Du145; read-out: 22): 1.7 ± 0.12 µM
GI50 (H460; read-out: 22): 2.2 ± 0.065 µM
GI50 (A2780; read-out: 22): 2.4 ± 0.14 µM
GI50 (MIA; read-out: 22): 2.4 ± 0.14 µM
GI50 (A431; read-out: 22): 2.2 ± 0.11 µM
GI50 (HT29; read-out: 22): 2.1 ± 0.05 µM
GI50 (MCF-7; read-out: 22): 2.3 ± 0.1 µM
Compound: N=C(N)NN=Cc1ccc(OC/C=C\COc2ccc(C=NNC(=N)N)cc2)cc1 [compound 22]
GI50 (BE2-C; read-out: 22): 2.3 ± 0.13 µM
GI50 (MCF10A; read-out: 22): 2.8 ± 0.15 µM
GI50 (SMA; read-out: 22): 2.9 µM
GI50 (SJ-G2; read-out: 22): 1.8 ± 0.048 µM
